Counter-ions that a name gives are not always drawn.
Columns and labels:
arachidonic acid = test: Arachidonic Acid Antagonism Assay (AAAA); type: in vivo; conditions: male CF-1 mice; for arachidonic acid antagonism: active = elevates the LD50 of sodium arachidonate outside the 95% confidence interval of the control LD50, test compound IV 15 minutes before; for % of Control LD₅₀ 100mg/kg: LD50 of sodium arachidonate, IV
Experimental: Since these metabolites contribute to the pathological problems associated with stroke, spinal trauma and head injury, compounds which antagonize arachidonic acid are useful in treating stroke, spinal trauma and head injury.
While not necessary to determine arachidonic acid antagonism, the above assay has been modified as follows: Charles River male CF-1 mice weighing 18-22g are treated IV with the test compound dissolved in 1.0% Tween-80 and 0.1% hydrochloric acid in distilled water, 0.2 ml total volume. Fifteen minutes later sodium arachidonate (90% pure) in physiological (normal) saline is injected into the tail vein. The LD₅₀ is measured using the Spearman-Karber method with a log dose interval of 0.05 (N=6). Compounds which elevate the LD₅₀ outside of the 95% confidence interval of the control LD₅₀ are considered to be "active".

rat brain synaptosomes [1] = test: Conjugated Diene Formation Assay; type: biochemical; conditions: active = inhibits conjugated diene formation by 50% or more; 100 »M (or less) of drug, 100 »M hydrogen peroxide, 200 »M ferrous ammonium sulfate
Excerpt: The formation of conjugated dienes as assayed by Braughler, J. Neurochem., 44, 1282 (1985), Bucher, Fund. Applied Tox., 3, 222 (1983) and Tein, Arch. Biochem. Biophy., 216, 142 (1982) is a standard pharmacological laboratory procedure useful for identifying compounds which inhibit lipid peroxidation. Since lipid peroxidation is involved in the pathophysiology of central nervous system trauma, compounds which inhibit conjugated diene formation are useful in treating the conditions listed below.
44, 1282 (1985). Synaptosomal suspension (10 »l) is added to 1 ml of physiological (normal) saline containing 1 % Lubrol PX (Sigma Chemical Co. St. Louis, Mo.), 100 »M hydrogen peroxide and 100 »M (or less) of the drug to be tested prepared in either absolute ethanol or water depending upon solubility. The reaction is started by the rapid addition of 200 »M ferrous ammonium sulfate is prepared in argon-purged water. The sample is rapidly mixed and the change in absorbance at 232nm is followied in a Gilford Response Spectrophotometer equipped with a rapid sampler. Due to the rapidity of the reaction, rapid addition of the iron, rapid mixing and sampling are obligatory to the accuracy of the assay. For best results absorbance readings of one/sec should be started within 5 sec following the addition of iron. The initial linear rate of absorbance change during the first 30 sec of reaction are compared with the rate of a reaction containing all reagents except synaptosomes. The difference in rates is the rate of conjugated diene formation. Rates with drug are compared to rates obtained in the absence of drug and the % inhibition is calculated. A compound that inhibits conjugated diene formation by 50% or more is considered to be "active".

rat brain synaptosomes [2] = test: Malonyldialdehyde (MDA) Formation Assay; type: biochemical; conditions: active = inhibits MDA formation by 50% or more at 200»M or less; 10 min at 37°, pH 7.0, 150 uM Fe+++ and 50 uM Fe++
Experimental: Since lipid peroxidation is involved in the pathophysiology of central nervous system trauma, compounds which inhibit MDA formation are useful in treating the conditions listed below.
While not necessary to determine MDA formation, the above assays have been modified as follows: rat brain synaptosomes are prepared as described in the Example about the conjugated diene assay, except that the final wash of the synaptosomes and final suspension are in physiological (normal) saline in which the pH has been adjusted to 7.0. The synaptosomes are incubated for 10 min at 37° in physiological (normal) saline pH 7.0 (total volume = 100 ul) containing; 10 ul synaptosomal suspension, 10% DMSO plus or minus drug, 150 uM Fe⁺⁺⁺ and 50 uM Fe++. The incubation is started by the rapid addition of iron to the otherwise complete reaction. The iron solutions are prepared fresh as ferric chloride and ferrous ammonium sulfate in argon-purged water. Following the 10 min incubation, the reaction is stopped by the addition of 500 ul ice-cold 12% trichloroacetic acid prepared in 0.5 N hydrochoric acid. Water (300 ul) is then added along with 100 ul of freshly prepared thiobarbituric acid (3.3% in 0.5N sodium hydroxide) and 10 ul of 5mM desferrioxamine. The sample is then heated in a boiling water bath for 20 minutes. The samples are cooled and centrifuged for 15 minutes at 1500 xg and the absorbance of the supernatant fraction is read at 532 nm. The % inhibition of MDA formation is calculated by dividing the absorbance of sample containing drug by the absorbance of samples incubated without drug. Reaction blanks are samples incubated in the absence of iron. A compound that inhibits MDA formation by 50% or more at a concentration of 200»M or less is considered "active".

ACAT = test: AcylCoA:Cholesterol Acyltransferase (ACAT) Inhibition Assay; type: cell-based
Excerpt: ACAT esterifies arterial cholesterol which is a key reaction in the development of atherosclerosis. The procedure of Bell, Can. […] In the ACAT assay it is preferred to use Fu5AH cells, see Lipids 9, 526 (1974). According to this procedure, compounds which inhibit ACAT activity equal to, or greater than, that of chlorpromazine are considered "active".

Row | Structure (SMILES) | arachidonic acid antagonism (arachidonic acid) | inhibition of MDA formation (rat brain synaptosomes [2]) | also measured
1 | CCN(CC)c1cc(N2CCN(CC(=O)[C@@]3(O)CC[C@H]4[C@@H]5CCC6=CC(=O)CC[C@]6(C)C5=CC[C@@]43C)CC2)nc(N)n1 [Example 4, 21-[4-[2-Amino-6-(diethylamino)-4-pyrimidinyl]-1-piperazinyl]-17α-hydroxypregna-4,9(11)-diene-3,20-dione] | demonstrate arachidonic acid antagonism | – | inhibition of conjugated diene formation (rat brain synaptosomes [1]): demonstrate such activity by inhibition of conjugated dienes
2 | C[C@]12CCC(=O)C=C1CC[C@@H]1C2=CC[C@@]2(C)[C@H]1CC[C@]2(O)C(=O)CN1CCC(O)(c2ccc(C(F)(F)F)cc2)CC1 [Example 5, 17α-Hydroxy-21-[4-hydroxy-4-(4-trifluoromethyl)phenyl-1-piperidinyl]pregna-4,9(11)-diene-3,20-dione] | – | – | inhibition of conjugated diene formation (rat brain synaptosomes [1]): demonstrate such activity by inhibition of conjugated dienes
3 | CCN(CC)c1nc(N2CCCCC2)cc(N2CCN(CC(=O)[C@@]3(O)CC[C@H]4[C@@H]5CCC6=CC(=O)CC[C@]6(C)C5=CC[C@@]43C)CC2)n1.Cl.O [Example 17] | – | demonstrate such activity by inhibition of MDA formation | % of Control LD₅₀ 100mg/kg (arachidonic acid): 150%; % Inhibition of ACAT (5 »g/ml) (ACAT; 5 »g/ml): 32.2%; inhibiting ACAT (ACAT; active = inhibits ACAT activity equal to, or greater than, that of chlorpromazine): active in inhibiting ACAT
4 | CN1CCN(c2cc(N3CCN(CC(=O)[C@@]4(O)CC[C@H]5[C@@H]6CCC7=CC(=O)CC[C@]7(C)C6=CC[C@@]54C)CC3)nc(N3CCN(C)CC3)n2)CC1.CS(=O)(=O)O.O [Example 19, 17α-Hydroxy-21-[4-[2,6-bis(4-methyl-1-piperazinyl)-4-pyrimidinyl]-1-piperazinyl]pregna-4,9(11)diene-3,20-dione methanesulfonate hydrate] | demonstrate arachidonic acid antagonism | – | % of Control LD₅₀ 100mg/kg (arachidonic acid): 141%
5 | C[C@H]1C[C@@H]2[C@H]([C@@H](O)C[C@@]3(C)[C@H]2CC[C@]3(O)C(=O)CN2CCN(c3ccccn3)CC2)[C@@]2(C)C=CC(=O)C=C12 [Example 21, 11β-17α-dihydroxy-6α-methyl-21-[4-(2-pyridinyl)-1-piperazinyl]pregna-1,4-diene-3,20-dione] | demonstrate arachidonic acid antagonism | – | –
6 | COc1cccc(N2CCN(CC(=O)[C@@]3(O)CC[C@H]4[C@@H]5CCC6=CC(=O)CC[C@]6(C)C5=CC[C@@]43C)CC2)n1.CS(=O)(=O)O [Example 22, 17α-hydroxy-21-[4-(6-methoxy-2-pyridinyl)-1-piperazinyl]pregna-4,9(11)-diene-3,20-dione monomethanesulfonate] | demonstrate arachidonic acid antagonism | – | –
7 | C[C@]12C=CC(=O)C=C1CC[C@@H]1[C@@H]2[C@@H](O)C[C@@]2(C)[C@H]1CC[C@]2(O)C(=O)CN1CCN(c2ccccn2)CC1 [Example 25, 11β,17α-dihydroxy-21-[4-(2-pyridinyl)-1-piperazinyl]-pregna-1,4-diene-3,20-dione dihydrochloride] | demonstrate arachidonic acid antagonism | – | –
8 | C[C@]12CCC(=O)C=C1CC[C@@H]1[C@@H]2[C@H](O)C[C@@]2(C)[C@H]1CC[C@]2(O)C(=O)CN1CCN(c2ccc(F)cc2)CC1 [Example 29, 21-[4-(4-fluorophenyl)-1-piperazinyl]-11α,17α-dihydroxypregn-4-ene-3,20-dione dihydrochloride] | demonstrate arachidonic acid antagonism | – | –
9 | C[C@@H]1C[C@H]2[C@@H]3CCC4=CC(=O)C=C[C@]4(C)[C@H]3[C@H](O)C[C@]2(C)[C@H]1C(=O)CN1CCN(c2cc(N3CCCC3)nc(N3CCCC3)n2)CC1 [Example 84] | – | – | inhibition of conjugated diene formation (rat brain synaptosomes [1]): demonstrate such activity by inhibition of conjugated dienes
10 | C[C@]12CCC(=O)C=C1CC[C@@H]1C2=CC[C@]2(C)[C@@H](CCN3CCN(c4cc(N5CCCC5)nc(N5CCCC5)n4)CC3)CC[C@@H]12.Cl [Example 104, 21-[4-(2,6-Bis(1-pyrrolidinyl)-4-pyrimidinyl)-1-piperazinyl]pregna-4,9(11)-dien-3-one hydrochloride] | – | demonstrate such activity by inhibition of MDA formation | –
11 | C[C@]12CC[C@H]3[C@@H](CCC4=CC(=O)CC[C@@]43C)[C@@H]1CC[C@@H]2CCN1CCN(c2cc(N3CCCC3)nc(N3CCCC3)n2)CC1.Cl [Example 107] | – | demonstrate such activity by inhibition of MDA formation | –
12 | C[C@@]12C(=CC(=O)C[C@@H]1C#N)CC[C@@H]1C2=CC[C@]2(C)[C@@H](CCN3CCN(c4cc(N5CCCC5)nc(N5CCCC5)n4)CC3)CC[C@@H]12.Cl.Cl.Cl.O [Example 110] | – | demonstrate such activity by inhibition of MDA formation | –
13 | C[C@]12C=CC(=O)C=C1CC[C@@H]1C2=CC[C@]2(C)[C@@H](C(=O)CN3CCN(c4cc(N5CCCC5)nc(N5CCCC5)n4)CC3)CC[C@@H]12.Cl.Cl [Example 111] | – | – | inhibition of conjugated diene formation (rat brain synaptosomes [1]): demonstrate such activity by inhibition of conjugated dienes
14 | CC(CN1CCN(c2cc(N3CCCC3)nc(N3CCCC3)n2)CC1)[C@H]1CC[C@H]2[C@@H]3CCC4=CC(=O)C=C[C@]4(C)[C@H]3CC[C@]12C.CS(=O)(=O)O.O (stereo partly drawn) [Example 112] | – | – | inhibition of conjugated diene formation (rat brain synaptosomes [1]): demonstrate such activity by inhibition of conjugated dienes
15 | C[C@H]1C[C@H]2[C@@H]3C[C@H](F)C4=CC(=O)CC[C@]4(C)C3=CC[C@]2(C)[C@@]1(O)C(=O)CN1CCN(c2cc(N3CCCC3)nc(N3CCCC3)n2)CC1.Cl.Cl [Example 118] | – | demonstrate such activity by inhibition of MDA formation | –
16 | C[C@@H]1C[C@H]2[C@@H]3CCC4=CC(=O)C=C[C@]4(C)[C@H]3CC[C@]2(C)[C@H]1C(=O)CN1CCN(c2cc(N3CCCC3)nc(N3CCCC3)n2)CC1.Cl.Cl [Example 121] | – | demonstrate such activity by inhibition of MDA formation | –
17 | COc1ccc2c(c1)CC[C@@H]1[C@@H]2CC[C@@]2(C)[C@H]1CC[C@]2(O)C(=O)CN1CCN(c2cc(N3CCCC3)nc(N3CCCC3)n2)CC1 [Example 125] | – | demonstrate such activity by inhibition of MDA formation | –
18 | CCNc1cccnc1N1CCN(CC(=O)[C@H]2[C@H](C)C[C@H]3[C@@H]4CCC5=CC(=O)C=C[C@]5(C)C4=CC[C@@]32C)CC1.Cl [Example 127, 21-[4-[3-(Ethylamino)-2-pyridinyl]piperazinyl]-16α-methylpregna-1,4,9(11)-triene-3,20-dione hydrochloride] | – | demonstrate such activity by inhibition of MDA formation | –
19 | C[C@]12CC[C@@H]3c4ccc(O)cc4CC[C@H]3[C@@H]1CC[C@]2(O)C(=O)CN1CCN(c2cc(N3CCCC3)nc(N3CCCC3)n2)CC1 [Example 129, 3,17α-Dihydroxy-21-[4-[2,6-bis(1-pyrrolidinyl)-4-pyrimidinyl]-1-piperazinyl]-19-norpregna-1,3,5-(10)-trien-20-one (E)-2-butenedioate 1:1 salt] | – | demonstrate such activity by inhibition of MDA formation | –

Reference: EP0263213B1, “C20 Through C26 amino steroids” (THE UPJOHN COMPANY, priority 1986, dated 1988)
